# Reference: ChEMBL document CHEMBL1201862, “PubChem BioAssay data set” (2004)
# Activity calls are given as the source filed them.
# Assays:
# [1] = growth suppression of PTEN-null colon cells, dose response, cell-based, HCT116 PTEN knockout (AID 1047); assay type: functional;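 further: HCT116 colon tumor cells with PTEN knocked out; cells exposed to compound for 60 hours before readout; potency for loss of cell viability measured by luminescence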
# [2] = growth suppression of beta-catenin-knockout colon cells, dose response, cell-based, HCT116, human colon tumor (AID 1045); assay type: functional;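 further: HCT116 colon tumor cells with beta catenin knocked out; cells exposed to compound for 60 hours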
# [3] = NIH-3T3 fibroblast cytotoxicity, dose response, cytotoxicity control, cell-based, fluorescence, Alamar Blue, secondary assay (AID 2327); assay type: functional;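 further: NIH-3T3 mouse fibroblasts cultured with fluconazole at 8 µg/mL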
# [4] = Vero E6 cell cytotoxicity, dose response, cytotoxicity control for non-replicating M. tuberculosis project, secondary assay (AID 492998); assay type: functional, VeroE6; conditions: Vero C1008
# [5] = target: T1, Microphthalmia-associated transcription factor (Homo sapiens, UniProt O75030); assay: TRPM1 promoter luciferase signal decrease, dose response, MITF inhibitor project, cell-based, SK-MEL-5, cherry-picked, set 3 (AID 493073); assay type: functional
# T1 sequence (O75030 whole entry): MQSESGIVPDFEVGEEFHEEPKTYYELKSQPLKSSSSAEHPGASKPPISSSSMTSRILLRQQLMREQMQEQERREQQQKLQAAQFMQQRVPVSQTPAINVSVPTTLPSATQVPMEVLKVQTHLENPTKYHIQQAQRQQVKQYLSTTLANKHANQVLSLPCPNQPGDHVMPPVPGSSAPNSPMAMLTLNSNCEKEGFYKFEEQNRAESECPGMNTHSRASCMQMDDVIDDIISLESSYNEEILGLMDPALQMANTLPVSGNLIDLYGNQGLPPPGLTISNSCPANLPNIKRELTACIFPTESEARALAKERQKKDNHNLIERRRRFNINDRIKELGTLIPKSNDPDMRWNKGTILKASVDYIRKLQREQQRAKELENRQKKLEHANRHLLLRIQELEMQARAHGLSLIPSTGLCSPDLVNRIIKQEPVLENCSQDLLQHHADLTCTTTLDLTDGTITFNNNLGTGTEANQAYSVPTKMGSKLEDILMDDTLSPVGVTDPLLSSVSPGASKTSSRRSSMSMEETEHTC
# [6] = HepG2 cell cytotoxicity, dose response, cytotoxicity control for non-replicating M. tuberculosis project (AID 489018); assay type: functional; conditions: Mycobacterium tuberculosis
# [7] = cells; assay type: functional
# [8] = THP-1 cell cytotoxicity, dose response, cytotoxicity control for non-replicating M. tuberculosis project (AID 489025); assay type: functional
# [9] = tested on: A-375; assay: A375 melanoma cell viability reduction, dose response, counter-screen for MITF modulator project, cherry-pick samples, set 2 (AID 540335); assay type: functional, cell-based; conditions: Homo sapiens
# [10] = cytotoxicity in KRAS-transformed pancreatic duct cells, primary screen, cell-based, fluorescence, HTS (AID 431); assay type: functional; conditions: Homo sapiens;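 further: cell line used: HPDE-C7K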
# [11] = C. albicans growth with fluconazole, confirmation, fluorescence, retest (AID 2467); assay type: functional, cell-based
# [12] = cytotoxicity in HPDE-C7 cells, cell-based, fluorescence, HTS (AID 430); assay type: functional; conditions: Homo sapiens
# [13] = tested on: A-375; assay: MITF: Counter assay: A375 proliferation Measured in Cell-Based System Using Plate Reader - 2084-03_Inhibitor_Dose_DryPowder_Activity. [Related pubchem assays (depositor defined):AID488944]; assay type: functional; conditions: Homo sapiens
# [14] = inhibitors of PGC1a acetylation in cells, dose response, cell-based, cherry-picked samples (AID 720514); assay type: functional;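 further: potency may reflect raised or lowered acetylation signal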
# [15] = tested on: H4; assay: Inhibitors of Prion Protein 5' UTR mRNA Measured in Cell-Based System Using Plate Reader - 2078-01_Inhibitor_Dose_DryPowder_Activity. [Related pubchem assays (depositor defined):AID488894]; assay type: functional; conditions: Homo sapiens
# [16] = cytotoxicity in HEK-293T NF-kB-Luc cells, dose response, cytotoxicity control for B/T-cell NF-kB inhibitor project, cell-based, uHTS hits (AID 489019); assay type: functional;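 further: IC50 reflects cytotoxicity as loss of cell viability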
# [17] = inhibitors of clade B AD8 Env fusion, dose response, cell-based, cherry-pick (AID 652062); assay type: functional;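 further: luciferase signal from cell-cell fusion driven by HIV-1 clade B AD8 Env; potency is for inhibitors of fusion seen as a drop in luminescence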
# [18] = inhibitors of HIV Env-driven cell fusion, dose response, cherry-pick (AID 652057); assay type: functional, cell-based
# [19] = tested on: Jurkat; assay: antigen receptor-induced NF-kB inhibitors, dose response, Jurkat, luciferase reporter, luminescence, B- and T-cell (AID 489004); assay type: functional, cell-based; conditions: Homo sapiens;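 further: NF-kB luciferase reporter Jurkat cells stimulated with PMA plus ionomycin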
# [20] = MC4R antagonists, dose response, counter-screen for LGR2 antagonist project, cell-based, plate reader, cherry pick (AID 743444); assay type: functional;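 further: transfected HEK 293 cells stimulated with alpha-MSH peptide; potency of inhibitors of the alpha-MSH evoked signal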
# [21] = tested on: H4; assay: inhibitors of control reporter signal in H4 cells – cell-based, plate reader, dry powder samples, counter-screen for prion reporter project, dose response (AID 540255); assay type: functional; conditions: Homo sapiens
# [22] = off-target signal loss in HeLa-CEM21 co-culture – HeLa F-luc CTL cells, cherry-picked, counter-screen for HIV-1 Env fusion inhibitor project, dose response (AID 652040); assay type: functional, cell-based;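 further: potency for signal decrease marking cytotoxic or nonspecific inhibition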
# [23] = LGR2 antagonists, dose response, cell-based, HEK293, CRE-luciferase reporter, cherry pick, set 2 (AID 743343); assay type: functional;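 further: transfected cells were stimulated with diluted bursicon conditioned medium after compound addition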
# [24] = A549 cell cytotoxicity, dose response, cytotoxicity control, plate reader, cherry-pick, antagonist series (AID 743412); assay type: functional, cell-based
# [25] = ZM109 Env clade C HIV-1 fusion inhibitors, dose response, HeLa effector, CEM target cells, luciferase, cherry-pick (AID 652058); assay type: functional, cell-based
# [26] = cytotoxicity in HEK-293T cells, dose response, cytotoxicity control for BCR NF-kB inhibitor project, luminescence, B-cell screen hits (AID 489021); assay type: functional, cell-based;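 further: HEK-293T cells carrying an NF-kB luciferase reporter; cells exposed to compound for about 14 hours before viability readout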
# [27] = tested on: Jurkat; assay: SAR Analysis of small molecule inhibitors of T-cell specific antigen receptor-induced NF-kB activation in a Jurkat cell line using a luminescence assay - Set 2. [Related pubchem assays (depositor defined):AID435003, AID435012, AID465]; assay type: functional, cell-based; conditions: Homo sapiens
# [28] = tested on: HEK293; assay: SAR Analysis of small molecule inhibitors of T-cell specific antigen receptor-induced NF-kB activation in a HEK-293T cell line using a luminescence assay - Set 2. [Related pubchem assays (depositor defined):AID435003, AID435012, AID489026]; assay type: functional, cell-based; conditions: Homo sapiens
# [29] = tested on: HEK293; assay: cytotoxicity in HEK293T NF-kB-Luc cells, SAR follow-up, cytotoxicity control for NF-kB activator project, cell-based, resazurin fluorescence (AID 493251); assay type: functional; conditions: Homo sapiens
# [30] = target: Dual specificity tyrosine-phosphorylation-regulated kinase 1A (Rattus norvegicus, UniProt Q63470); assay type: biochemical, Homo sapiens
# [31] = target: Dual specificity protein kinase CLK1 (Homo sapiens, UniProt P49759); assay: CLK1 kinase inhibitors, off-target check, dose response, selectivity assay for Dyrk1A inhibitor project, biochemical, cherry-picked samples (AID 588811)
# [32] = target: T2, Short transient receptor potential channel 4 (Mus musculus, UniProt Q9QUQ5); assay: mouse TRPC4 channel activators, dose response, cell-based, HEK293 TRPC4/mu-opioid, Fluo-4 calcium (AID 434937); assay type: functional
# T2 sequence (Q9QUQ5 whole entry): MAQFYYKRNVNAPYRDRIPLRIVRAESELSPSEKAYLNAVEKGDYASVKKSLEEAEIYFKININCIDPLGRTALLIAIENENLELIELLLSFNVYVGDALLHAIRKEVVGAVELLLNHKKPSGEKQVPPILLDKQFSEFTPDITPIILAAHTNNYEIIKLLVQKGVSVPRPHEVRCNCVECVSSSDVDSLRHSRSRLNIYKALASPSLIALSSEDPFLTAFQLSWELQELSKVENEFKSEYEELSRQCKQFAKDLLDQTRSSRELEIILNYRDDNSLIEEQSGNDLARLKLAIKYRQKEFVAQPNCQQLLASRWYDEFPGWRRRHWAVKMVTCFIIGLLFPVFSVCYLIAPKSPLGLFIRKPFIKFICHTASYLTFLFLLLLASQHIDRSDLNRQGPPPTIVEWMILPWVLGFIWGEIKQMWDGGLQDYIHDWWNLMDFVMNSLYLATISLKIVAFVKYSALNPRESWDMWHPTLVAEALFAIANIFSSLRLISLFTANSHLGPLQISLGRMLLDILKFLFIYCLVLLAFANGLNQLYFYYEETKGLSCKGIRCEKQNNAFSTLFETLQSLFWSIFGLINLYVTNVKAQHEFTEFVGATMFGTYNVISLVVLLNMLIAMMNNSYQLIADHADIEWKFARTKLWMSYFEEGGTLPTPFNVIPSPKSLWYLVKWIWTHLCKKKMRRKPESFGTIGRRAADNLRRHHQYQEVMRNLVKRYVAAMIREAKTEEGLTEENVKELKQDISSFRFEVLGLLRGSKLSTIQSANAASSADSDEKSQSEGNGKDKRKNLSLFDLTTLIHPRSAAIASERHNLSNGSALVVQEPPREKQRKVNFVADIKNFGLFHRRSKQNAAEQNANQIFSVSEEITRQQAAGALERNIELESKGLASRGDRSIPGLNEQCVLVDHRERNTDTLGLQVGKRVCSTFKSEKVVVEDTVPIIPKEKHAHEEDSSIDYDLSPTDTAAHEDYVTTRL
# [33] = target: Opioid receptors; mu & delta (Homo sapiens, UniProt P41143+P35372); assay: agonists of MOR-DOR heterodimerization, dose response, cell-based, luminescence (AID 588407); assay type: functional
# [34] = target: 5-hydroxytryptamine receptor 5A (Homo sapiens, UniProt P47898); assay: Counterscreen for agonists of OPRM1-OPRD1 heterodimerization: luminescence-based cell-based high throughput dose response assay to identify agonists of 5-hydroxytryptamine (serotonin) 5A receptor (HTR5A). [Related pubchem assays (depositor defined):AID504326, AID504355, AID504692, AID504904, AID504905]; assay type: functional
# [35] = target: Mu-type opioid receptor (Homo sapiens, UniProt P35372); assay: (§1) Counterscreen for agonists of heterodimerization of the mu 1 (OPRM1) and delta 1 (OPRD1) opioid receptors: Luminescence-based cell-based high throughput dose response assay to identify agonists of OPRM1 homodimerization.; assay type: functional
# [36] = target: Delta-type opioid receptor (Homo sapiens, UniProt P41143); assay: as §1, with “of OPRD1” for “of OPRM1”, “homodimerization. [Related pubchem assays (depositor defined):AID504326, AID504355, AID504692, AID504904, AID504905]” for “homodimerization.”; assay type: functional
# [37] = target: DNA topoisomerase (Yersinia pestis, UniProt A0A2S9PM60); assay: Y. pestis Topo-I inhibitors, cleavage product readout, dose response, biochemical, cherry-pick (AID 588525)
# Sequence of DNA topoisomerase (A0A2S9PM60 whole entry): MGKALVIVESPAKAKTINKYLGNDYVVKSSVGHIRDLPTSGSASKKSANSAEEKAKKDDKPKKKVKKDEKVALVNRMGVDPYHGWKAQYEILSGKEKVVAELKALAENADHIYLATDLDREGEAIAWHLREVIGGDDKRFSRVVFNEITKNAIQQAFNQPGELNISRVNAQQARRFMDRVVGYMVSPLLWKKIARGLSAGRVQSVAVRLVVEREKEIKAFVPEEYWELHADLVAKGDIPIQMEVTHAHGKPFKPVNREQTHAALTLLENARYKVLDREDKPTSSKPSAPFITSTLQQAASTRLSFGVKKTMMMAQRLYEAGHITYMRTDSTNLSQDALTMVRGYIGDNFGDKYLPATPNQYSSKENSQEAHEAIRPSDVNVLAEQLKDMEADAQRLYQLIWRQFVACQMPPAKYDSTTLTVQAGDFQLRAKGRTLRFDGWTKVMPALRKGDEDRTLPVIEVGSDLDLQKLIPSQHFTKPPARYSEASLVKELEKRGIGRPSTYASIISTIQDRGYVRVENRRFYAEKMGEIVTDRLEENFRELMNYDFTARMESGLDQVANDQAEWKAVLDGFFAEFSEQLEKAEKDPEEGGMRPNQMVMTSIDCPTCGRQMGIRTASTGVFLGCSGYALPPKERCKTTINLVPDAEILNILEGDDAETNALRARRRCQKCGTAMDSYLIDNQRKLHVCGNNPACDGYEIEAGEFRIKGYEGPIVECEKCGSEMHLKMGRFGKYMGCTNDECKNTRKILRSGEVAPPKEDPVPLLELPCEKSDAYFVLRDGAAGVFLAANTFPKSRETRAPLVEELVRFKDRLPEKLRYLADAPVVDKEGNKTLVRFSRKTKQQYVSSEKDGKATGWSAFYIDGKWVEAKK
# Sequence of 5-hydroxytryptamine receptor 5A (P47898 whole entry): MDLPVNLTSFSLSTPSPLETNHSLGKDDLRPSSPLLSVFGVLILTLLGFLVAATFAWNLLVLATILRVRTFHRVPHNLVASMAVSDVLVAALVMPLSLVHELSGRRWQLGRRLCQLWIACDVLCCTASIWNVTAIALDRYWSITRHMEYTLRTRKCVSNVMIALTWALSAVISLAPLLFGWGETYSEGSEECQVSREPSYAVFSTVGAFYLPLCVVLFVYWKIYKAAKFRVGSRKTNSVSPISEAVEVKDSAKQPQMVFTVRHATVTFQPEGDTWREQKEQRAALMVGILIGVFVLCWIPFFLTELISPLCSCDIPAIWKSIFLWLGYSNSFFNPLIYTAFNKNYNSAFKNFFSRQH
# Sequence of Delta-type opioid receptor (P41143 whole entry): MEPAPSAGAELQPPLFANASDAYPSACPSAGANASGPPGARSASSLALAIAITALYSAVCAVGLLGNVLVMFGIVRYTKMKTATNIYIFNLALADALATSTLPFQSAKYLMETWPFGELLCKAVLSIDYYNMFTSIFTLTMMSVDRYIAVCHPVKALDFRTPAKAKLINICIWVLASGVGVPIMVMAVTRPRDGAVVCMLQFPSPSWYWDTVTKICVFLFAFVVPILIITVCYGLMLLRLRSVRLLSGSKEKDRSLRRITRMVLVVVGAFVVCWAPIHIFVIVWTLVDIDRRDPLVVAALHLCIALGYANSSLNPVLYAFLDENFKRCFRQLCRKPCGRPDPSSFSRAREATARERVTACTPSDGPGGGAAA
# Sequence of Mu-type opioid receptor (P35372 whole entry): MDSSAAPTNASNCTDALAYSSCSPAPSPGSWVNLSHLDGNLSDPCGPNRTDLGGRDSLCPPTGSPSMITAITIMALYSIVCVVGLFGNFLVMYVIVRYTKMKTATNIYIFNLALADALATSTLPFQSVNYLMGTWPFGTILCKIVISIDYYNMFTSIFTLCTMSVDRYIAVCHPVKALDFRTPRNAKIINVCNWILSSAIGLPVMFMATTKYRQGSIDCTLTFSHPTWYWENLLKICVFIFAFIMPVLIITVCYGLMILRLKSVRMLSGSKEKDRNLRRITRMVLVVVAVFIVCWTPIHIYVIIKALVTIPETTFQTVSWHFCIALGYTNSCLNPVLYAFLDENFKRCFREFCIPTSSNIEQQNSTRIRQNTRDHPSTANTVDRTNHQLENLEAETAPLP
# Sequence of Dual specificity protein kinase CLK1 (P49759 whole entry): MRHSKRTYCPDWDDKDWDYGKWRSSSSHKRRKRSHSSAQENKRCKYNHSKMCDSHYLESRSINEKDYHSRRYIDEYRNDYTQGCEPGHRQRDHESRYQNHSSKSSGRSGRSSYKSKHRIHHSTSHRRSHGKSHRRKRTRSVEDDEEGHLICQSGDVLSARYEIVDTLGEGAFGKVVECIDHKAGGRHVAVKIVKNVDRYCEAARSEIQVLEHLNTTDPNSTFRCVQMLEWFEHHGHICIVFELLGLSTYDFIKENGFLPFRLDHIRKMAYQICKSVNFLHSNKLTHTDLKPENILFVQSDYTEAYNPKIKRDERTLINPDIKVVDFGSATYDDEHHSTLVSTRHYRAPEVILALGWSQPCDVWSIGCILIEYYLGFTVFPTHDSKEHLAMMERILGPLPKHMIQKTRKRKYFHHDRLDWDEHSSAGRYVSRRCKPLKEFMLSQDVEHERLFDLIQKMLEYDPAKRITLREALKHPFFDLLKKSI
smiles,measurement,setting,value
COc1ccc(C(=O)C(CN2CCCC2)c2ccccc2)cc1 (stereo not drawn),EC50,[1],2.44 µM (active)
same,EC50,[2],1.83 µM (active)
same,EC50,[3],59.6 µM (active)
same,CC50,[4],11.6 µM (active)
same,AC50,[5],9.13 µM (active)
same,CC50,[6],17.3 µM (active)
same,IC50,[7],16.5 µM (active)
same,CC50,[8],7.27 µM (active)
same,AC50,[9],> 35 µM (active)
same,EC50,[10],6.46 µM (active)
same,EC50,[11],2.13 µM (active)
same,EC50,[12],4.54 µM (active)
same,AC50,[13],> 35 µM (active)
same,AC50,[14],10.5 µM (active)
COc1cccc(NC(=O)Nc2cccc(C(=O)O)c2)c1,AC50,[15],0.915 µM (active)
same,IC50,[16],> 80 µM (inactive)
same,AC50,[17],3.29 µM (active)
same,AC50,[5],2.37 µM (active)
same,AC50,[18],1.8 µM (active)
same,IC50,[19],1.9 µM (active)
same,AC50,[20],2.35 µM (active)
same,AC50,[21],3.95 µM (active)
same,AC50,[22],2.11 µM (active)
same,AC50,[23],1.56 µM (active)
same,AC50,[24],> 52 µM (inactive)
same,AC50,[25],7.32 µM (active)
O=C(Nc1nc2c(Br)cc(Br)cc2c(=O)s1)c1ccco1,IC50,[26],> 80 µM (inactive)
same,IC50,[27],6.7 µM (active)
same,IC50,[28],> 80 µM (inactive)
same,IC50,[29],> 80 µM (inactive)
COc1cccc(Nc2ncnc3sc(C)cc23)c1,AC50,[30],3.81 µM (active)
same,AC50,[31],5.47 µM (active)
COc1ccccc1N1CCN(C(c2cccs2)C(C)NC(=O)c2ccco2)CC1 (stereo not drawn),EC50,[32],0.084 µM (active)
same,EC50,[33],> 3.425 µM
same,EC50,[34],> 92.5 µM (inactive)
same,EC50,[35],50.3 µM (inactive)
same,EC50,[36],> 92.5 µM (inactive)
CC(C)CC1NC(=O)c2cc3ccccc3cc2-n2c1nc1cc(Cl)ccc1c2=O (stereo not drawn),AC50,[37],10.2 µM (active)
